We go through 50 compounds from PubChem BioAssay AID179 (DTP/NCI, 2004).

This assay has as its system CEM cells HIV-1 protection, formazan growth assay. Nature of the assay: NCI AIDS Antiviral Assay. As to conditions: for IC50: measured here: growth of uninfected CEM cells. In outline:
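CEM (human) cells, HIV-1 infected vs uninfected, 5-point dosing, formazan growth read-out. Retest threshold 50% protection.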

Activity calls are given as the source filed them.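 How the source made its calls: active means compounds giving half or more protection of infected cells from virus-caused growth loss, again on retest; inactive means the rest.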

As to `CCOC1(OCC)C2C=CC1C(COS(=O)(=O)c1ccc(C)cc1)C2COS(=O)(=O)c1ccc(C)cc1` (stereo unspecified), the EC50 (in general, the midpoint of the concentration-response curve) is greater than 200 µM and the IC50 – broadly, the concentration that gives 50% inhibition – came out at 14.1 µM.

For the compound `C=C1C(=O)OC2/C=C(\COC(C)=O)CCC(OC(C)=O)C3=CC(OC3=O)C12` (stereo unspecified), the EC50 is greater than 36.3 µM and the IC50 was found to be 7.24 µM.

Consider `O=c1nc2ccc3sc4ccccc4c(=O)c3n2c(=O)[nH]1`, for which the EC50 is greater than 200 µM and the 50% inhibitory concentration (IC50) is 110 µM. `Cc1cccc(C2(Br)C(=O)c3ccccc3C2=O)c1`: the EC50 was greater than 200 µM and the IC50 is 195 µM.

Take `O=C(C(=NC12CC3CC(CC(C3)C1)C2)NNc1ccc([N+](=O)[O-])cc1[N+](=O)[O-])C(Br)C(=O)c1ccccc1` (stereo unspecified): the EC50 was greater than 200 µM and the IC50 came out at 107 µM. Take `COC(=O)c1oc([N+](=O)[O-])c(-c2ccccc2)c1-c1ccccc1`: the EC50 was greater than 57.5 µM and the IC50 was greater than 57.5 µM. Consider `NCCN1C(=O)c2ccccc2C1c1ccc(Cl)cc1` (stereo unspecified), for which the EC50 was greater than 200 µM and the IC50 is greater than 200 µM. Regarding `CN(c1ccc(Cl)cc1)S(=O)(=O)c1ccc([N+](=O)[O-])cc1`, the EC50 is greater than 200 µM and the IC50 was greater than 200 µM.

`CC1(C)COC(c2cc3c(cc2Br)OCO3)=N1`: the EC50 was greater than 209 µM and the IC50 was greater than 209 µM.

Regarding `Cc1cc(=O)oc2c3c(ccc12)OC(C)(C)[C@H](OC(=O)C12CCC(C)(C(=O)O1)C2(C)C)[C@@H]3OC(=O)C12CCC(C)(C(=O)O1)C2(C)C` (stereo partly specified), the EC50 is 0.0759 µM and the IC50 was greater than 200 µM. On the same counts, the results for `Nc1ncnc2c1ncn2[C@H]1C(CO)[C@@H](CO)C12SCCCS2` (stereo partly specified) are greater than 191 µM and greater than 191 µM. Regarding `CC1(C=O)C(=O)CCC2(C)C3CC(=O)OC3CCC12` (stereo unspecified), the outcome was inactive. The same measure, in the same setting: then `C/C=C(\CCCCN1C(=O)CCC1O)[Si](C)(C)C` (stereo unspecified), with “inactive”. Turning to `C=C1CN(S(=O)(=O)c2ccc(C)cc2)CCCN(CCC)CCCN(S(=O)(=O)c2ccc(C)cc2)C1`, the EC50 was greater than 200 µM and the IC50 was 2.95 µM. On to `C=C1C2CCC3(CCC4C5(C)CCCC4(C=NC5)C3C2)C1O` (stereo unspecified), for which the outcome was inactive.

With `CC(=O)N[C@H]1CC2(C=C(Br)C(=O)C(Br)=C2)OC1=O`, the EC50 was greater than 33.1 µM and the IC50 was 5.13 µM. The corresponding values for `CCCNC(=O)c1ccccc1C(=O)C(Cl)c1ccccc1` (stereo unspecified) are greater than 214 µM and greater than 214 µM. On the same counts, the results for `CCC(=O)OC1CCn2c1nc1c2C(=O)C(C)=C(NC(C)=O)C1=O` (stereo unspecified) are greater than 200 µM and 1.23 µM.

On to `O=C(Nc1nc2ncn(CCOC(=O)c3ccccc3)c2c(=O)[nH]1)c1ccccc1`, for which the EC50 is greater than 85.1 µM and the half-inhibitory concentration (IC50) was determined as 61.7 µM. On the same counts, the results for `COC(=O)[C@H]1COC(=O)N1` are greater than 200 µM and greater than 200 µM.

On to `CC(=O)OCC1OC(n2c(-c3ccc(C)cc3)cc(-c3ccccc3)c(C#N)c2=O)C(OC(C)=O)C(OC(C)=O)C1OC(C)=O` (stereo unspecified), for which the EC50 was greater than 11.7 µM and the IC50 was greater than 11.7 µM. In the case of `COC(=O)C(CNC(=O)/C=C/c1ccc(OC(C)=O)c(OC(C)=O)c1)NC(=O)/C=C/c1ccc(OC(C)=O)c(OC(C)=O)c1` (stereo unspecified), the EC50 is greater than 200 µM and the IC50 came to 36.3 µM. For `N/C(=N\N=C/c1cc(Cl)cc(Cl)c1O)NO`, the result was inactive.

With `CCCCCCCCCCCCC(=O)N1CCOCC1`, the EC50 is greater than 200 µM and the IC50 came to 52.5 µM. `Cc1ccc(/C=C2/Sc3scc(-c4ccccc4)[n+]3C2=O)cc1`: the EC50 is greater than 200 µM and the IC50 was determined as 47.9 µM. As for `CCCCCC(=O)N1SC(NC(=O)OC)=Nc2ccccc21`, the EC50 is greater than 155 µM and the IC50 stood at 8.32 µM. Take `CCCCN(CCCC)CC(C(=O)Nc1ccc([N+](=O)[O-])cc1[N+](=O)[O-])/C(C)=N\NC(=O)C[N+](C)(C)C` (stereo unspecified): the EC50 was greater than 46.8 µM and the IC50 was greater than 46.8 µM.

For `CN1c2ccc(Cl)cc2C2(C(=O)NN)C(C(=O)NN)N(C3CCCCC3)C(=O)C12N` (stereo unspecified), the EC50 is greater than 87.1 µM and the half-inhibitory concentration (IC50) is greater than 87.1 µM. Take `CC(=O)/C=C\C(=O)NNS(=O)(=O)c1ccc(C)cc1`: the EC50 is greater than 891 µM and the IC50 worked out at 832 µM. In the case of `N#Cc1c(-c2ccccc2)/c(=C\O)c(=O)n2c1nc1ccccc12`, the EC50 is greater than 200 µM and the IC50 turned out to be 32.4 µM.

Consider `O=C1NC(=S)N/C1=C\c1cc2c(=O)c3ccccc3sc2s1`, for which the EC50 is 75.9 µM and the half-maximal inhibitory concentration (IC50) came out at 81.3 µM.

Regarding `CSC(=Nc1ccc(Br)cc1)NC(=O)c1cc([N+](=O)[O-])cc([N+](=O)[O-])c1`, the EC50 is greater than 200 µM and the IC50 is 34.7 µM. With `COC(=O)c1c(/C(=N/Nc2ccc([N+](=O)[O-])cc2)[N+](=O)[O-])ssc1=N`, the EC50 is greater than 200 µM and the IC50 was determined as 10 µM. Regarding `CCOC(=O)C1=C(C)C(C(=O)OC)[C@]2(C)C(C(=O)OCC)=C(O)C(C(=O)OC)[C@]12C` (stereo partly specified), the EC50 is greater than 126 µM and the 50% inhibitory concentration (IC50) was greater than 126 µM. As to `CCOP(=O)(OCC)/C(C#N)=C/c1cccs1`, the EC50 is 77.6 µM and the IC50 stood at 724 µM. On the same counts, the results for `COc1cccc(NC(=S)Nn2c(C)nc3ccccc3c2=O)c1` are greater than 105 µM and greater than 105 µM.

`CCOC(=O)C(C)(C)Oc1ccc2c(C)c(-c3ccc(Cl)cc3)c(=O)oc2c1`: the EC50 is greater than 12.9 µM and the IC50 was greater than 12.9 µM. Consider `O=C(O/N=c1/ccc(=O)/c(=N\OC(=O)c2ccccc2)c1=O)c1ccccc1`, for which the EC50 is greater than 200 µM and the IC50 came to 47.9 µM. On the same counts, the results for `CC(C)N(Cc1ccccc1)S(=O)(=O)c1n[nH]c(C(C)(C)C)n1` are greater than 200 µM and greater than 200 µM. The corresponding values for `Cc1ccc(/C(O)=C/c2nc3c(nc2NC24CC5CC(CC(C5)C2)C4)c(=O)oc2ccccc23)cc1` are greater than 2.19 µM and greater than 2.19 µM. The corresponding values for `COc1ccc(/C=C/C(=O)c2ccc(Br)cc2)cc1` are greater than 200 µM and 33.1 µM. As for `Cc1ccc(C(=O)Cc2nc3c([nH]c2=O)c(C)nn3-c2ccccc2)c(C)c1`, the EC50 was greater than 200 µM and the half-inhibitory concentration (IC50) was greater than 200 µM.

As for `Cc1ccc(S(=O)(=O)Nn2c(-c3ccccc3)c(C#N)c(-c3ccc(N(C)C)cc3)c(C#N)c2=O)cc1`, the EC50 was greater than 100 µM and the IC50 stood at 35.5 µM. The corresponding values for `C=C1C(=O)C23OC2C1CCC(=O)C1(C)CC[C@H](OC(C)=O)C(C)(C)[C@H]1CC3O` (stereo partly specified) are greater than 200 µM and 1.2 µM. On the same counts, the results for `NC(N)=NS(=O)(=O)c1ccc(NC(=O)c2cccc3cc4ccccc4nc23)cc1` are greater than 53.7 µM and 16.2 µM. The corresponding values for `CC1CC/C(=C\c2ccc(Cl)cc2)C(=O)/C1=C\c1ccc(Cl)cc1` (stereo unspecified) are greater than 200 µM and 42.7 µM. As for `COc1ccc2c(c1)c1c(n2CCN(C)C)-c2ccccc2CC1`, the EC50 was greater than 200 µM and the IC50 came to 14.8 µM. The corresponding values for `CC(=S)N=Cc1c(N)[nH]n(-c2ccccc2)c1=O` are greater than 200 µM and greater than 200 µM. On the same counts, the results for `CCOC(=O)C(=Cc1ccccc1OC)C(=O)OCC` are greater than 129 µM and 21.9 µM. The corresponding values for `CC(=O)OC/C=C/Cn1cnc(C(N)=O)c1N` are greater than 200 µM and greater than 200 µM.
